One data set addresses human recombinant PDE5 (Homo sapiens, UniProt O76074). Nature of the data set: Inhibitory effect on cGMP-PDE (PDE5 IC50). The note with it: in vitro, human recombinant PDE5, 0.15 μM 8-[H3]-cGMP, 30 min incubation. In kind it is biochemical. Here is the method:
The compounds of structural formula (I) were tested for an ability to inhibit PDE5. The ability of a compound to inhibit PDE5 activity is related to the IC50 value for the compound, i.e., the concentration of inhibitor required for 50% inhibition of enzyme activity. The IC50 value for compounds of structural formula (I) were determined using recombinant human PDE5.
cGMP-PDE activity of compounds of the present invention was measured using a one-step assay adapted from Wells et al., Biochim. Biophys. Acta, […], 430 (1975). The reaction medium contained 50 mM Tris-HCl, pH 7.5, 5 mM magnesium acetate, 250 μg/ml 5′-Nucleotidase, 1 mM EGTA, and 0.15 μM 8-[H^3]-cGMP. Unless otherwise indicated, the enzyme used was a human recombinant PDE5 (ICOS Corp., Bothell, Wash.).
Compounds of the invention were dissolved in DMSO finally present at 2% in the assay.

Structures are written as SMILES.

As to `CN1CC(=O)N2[C@H](c3ccc(O)c(O)c3)c3[nH]c4ccccc4c3C[C@@H]2C1=O` [Example 1, (6R,12aR)-6-(3,4-Dihydroxyphenyl)-2-methyl-2,3,6,7,12,12a-hexahydropyrazino[1′,2′:1,6]-pyrido[3,4-b]indole-1,4-dione], the melting point lay within 250.5 to 256.6 °C. Besides, the IC50 on human recombinant PDE5 stood at 0.045 µM.

`COc1cc([C@@H]2c3[nH]c4ccccc4c3C[C@@H]3C(=O)N(C)CC(=O)N23)ccc1O` [Example 2, (6R,12aR)-6-(4-Hydroxy-3-methoxyphenyl)-2-methyl-2,3,6,7,12,12a-hexahydropyrazino[1′,2′:1,6]-pyrido[3,4-b]indole-1,4-dione] had a melting point of 288.2 to 292.2 °C. Moreover, at human recombinant PDE5, the IC50 came out at 0.23 µM.
